Counter-ions that a name gives are not always drawn.
Target: T1, Sirt6 (Homo sapiens, UniProt Q8N6T7)
T1 construct: purchased CycLex CY-1156V2
Assay: Measurement of Sirt6 Activity (CycLex Sirt6 Deacetylase Fluorometric Assay Kit)
Type: biochemical
Details: compound at 10 μM; fluorescence relative to the group without compound treatment (positive control group)
Outline: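 Recombinant Sirt6 with fluoro-labelled acetyl-lysine peptide, NAD and lysylendopeptidase developer, compound added from 10× stock in PBS; 1 h at room temperature. Fluorescence read at ex 490/em 530 nm; activation expressed as fluorescence ratio relative to enzyme without compound.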

T1 sequence (Q8N6T7 whole entry): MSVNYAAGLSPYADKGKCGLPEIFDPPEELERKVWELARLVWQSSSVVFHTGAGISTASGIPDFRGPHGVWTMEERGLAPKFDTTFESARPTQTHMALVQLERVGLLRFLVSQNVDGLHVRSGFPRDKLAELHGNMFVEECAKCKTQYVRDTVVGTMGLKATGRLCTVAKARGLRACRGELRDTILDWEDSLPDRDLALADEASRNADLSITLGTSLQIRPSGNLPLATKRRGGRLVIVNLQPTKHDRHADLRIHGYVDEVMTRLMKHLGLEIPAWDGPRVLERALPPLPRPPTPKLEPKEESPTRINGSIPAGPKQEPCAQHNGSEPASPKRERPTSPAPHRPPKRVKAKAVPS

| Sirt6 Activity (% activity, 10 μM) [% activity] | Compound |
| --- | --- |
| 148 | C/[N+]([O-])=C/c1cccc(-c2nn(-c3cccc(F)c3)c(=O)c3ccccc23)c1 [Example 27, (Z)-1-(3-(3-(3-Fluorophenyl)-4-oxo-3,4-dihydrophthalazin-1-yl)phenyl)-N-methylmethanimine Oxide] |
| 102.08 | N/C(=N/O)c1cccc(-c2nn(-c3ccc(F)cc3)c(=O)c3ccccc23)c1 [Example 131, (E)-3-(3-(4-Fluorophenyl)-4-oxo-3,4-dihydrophthalazin-1-yl)-N′-hydroxybenzimidamide] |
| 211 | COC(=O)NS(=O)(=O)Nc1cccc(-c2nn(-c3ccc(F)cc3)c(=O)c3ccccc23)c1 [Example 20, Methyl (N-(3-(3-(4-fluorophenyl)-4-oxo-3,4-dihydrophthalazin-1-yl)phenyl)sulfamoyl) Carbamate] |
| 176.80 | O=c1c2ccccc2c(N2CCCNCC2)nn1-c1ccc(F)cc1F [Example 184, 4-(1,4-Diazepan-1-yl)-2-(2,4-difluorophenyl)phthalazin-1(2H)-one-hydrochloride] |
| 115 | CCCS(=O)(=O)N(C)c1cccc(-c2nn(-c3ccc(F)cc3)c(=O)c3ccccc23)c1 [Example 72, N-(3-(3-(4-Fluorophenyl)-4-oxo-3,4-dihydrophthalazin-1-yl)phenyl)-N-methylpropan-1-sulfonamide] |
| 112.2 | Cl.NC1CCCCN(c2nn(C3CCCC3)c(=O)c3ccccc23)C1 (centres unmarked) [Example 173, 4-(3-Aminoazepan-1-yl)-2-cyclopentyl phthalazin-1(2H)-one-hydrochloride] |
| 143 | C/[N+]([O-])=C\c1ccc(-c2nn(-c3ccc(F)cc3)c(=O)c3ccccc23)c(F)c1 [Example 38, (E)-1-(3-Fluoro-4-(3-(4-fluorophenyl)-4-oxo-3,4-dihydrophthalazin-1-yl)phenyl)-N-methylmethanimine Oxide] |
| 221 | CC/[N+]([O-])=C/c1cccc(-c2nn(-c3ccc(F)cc3)c(=O)c3ccccc23)c1 [Example 16, (Z)—N-Ethyl-1-(3-(3-(4-fluorophenyl)-4-oxo-3,4-dihydrophthalazin-1-yl)phenyl)methanimine Oxide] |
| 111 | CCS(=O)(=O)Nc1cccc(-c2nn(CCc3ccccc3)c(=O)c3ccccc23)c1 [Example 62, N-(3-(4-Oxo-3-phenethyl-3,4-dihydrophthalazin-1-yl)phenyl)ethanesulfonamide] |
| 194.70 | O=C(O)C1(c2cccc(-c3nn(-c4ccc(F)cc4F)c(=O)c4ccccc34)c2)CC1 [Example 183, 1-(3-(3-(2,4-Difluorophenyl)-4-oxo-3,4-dihydrophthalazin-1-yl)phenyl)cyclopropan-1-carboxylic Acid] |
| 223.9 | CN[C@H]1CCCCN(c2nn(C3CCCCC3)c(=O)c3ccccc23)C1.Cl [Example 156, (S)-2-Cyclohexyl-4-(3-(methylamino)azepan-1-yl)phthalazin-1(2H)-one-hydrochloride] |
| 318 | O=c1c2ccccc2c(-c2ccc[n+]([O-])c2)nn1-c1ccc(F)cc1F [Example 117, 3-(3-(2,4-Difluorophenyl)-4-oxo-3,4-dihydrophthalazin-1-yl)pyridine 1-oxide] |
| 172 | CC(C)/[N+]([O-])=C/c1cc(-c2nn(-c3ccc(F)cc3)c(=O)c3ccccc23)ccc1F [Example 52, (Z)-1-(2-Fluoro-5-(3-(4-fluorophenyl)-4-oxo-3,4-dihydrophthalazin-1-yl)phenyl)-N-isopropylmethanimine Oxide] |
| 102 | CS(=O)(=O)Nc1cccc(-c2nn(-c3ccccc3)c(=O)c3ccccc23)c1 [Example 6, N-(3-(4-Oxo-3-phenyl-3,4-dihydrophthalazin-1-yl)phenyl)methanesulfonamide] |
| 249.4 | Cl.NC1CCCCN(c2nn(-c3ccc(F)cc3F)c(=O)c3ccccc23)C1 (centres unmarked) [Example 167, 4-(3-Aminoazepan-1-yl)-2-(2,4-difluorophenyl)phthalazin-1(2H)-one-hydrochloride] |
| 175.98 | CCS(=O)(=O)N[C@H]1CCCN(c2nn(-c3ccc(F)cc3)c(=O)c3ccccc23)C1 [Example 138, (S)—N-(1-(3-(4-Fluorophenyl)-4-oxo-3,4-dihydrophthalazin-1-yl)piperidin-3-yl)ethanesulfonamide] |
| 155.3 | Cl.N[C@@H]1CCCCN(c2nn(-c3ccccc3F)c(=O)c3ccccc23)C1 [Example 175, (R)-4-(3-Aminoazepan-1-yl)-2-(2-fluorophenyl)phthalazin-1(2H)-one-hydrochloride] |

| Sirt6 Activity (% activity, 10 μM) [% activity] | Compound |
| --- | --- |
| 201 | CC(C)/[N+]([O-])=C/c1cccc(-c2nn(-c3ccc(F)cc3F)c(=O)c3ccccc23)c1 [Example 22, (Z)-1-(3-(3-(2,4-Difluorophenyl)-4-oxo-3,4-dihydrophthalazin-1-yl)phenyl)-N-isopropyl Methanimine Oxide] |
| 160 | C/[N+]([O-])=C/c1ccccc1-c1nn(-c2ccc(F)cc2)c(=O)c2ccccc12 [Example 40, (Z)-1-(2-(3-(4-Fluorophenyl)-4-oxo-3,4-dihydrophthalazin-1-yl)phenyl)-N-methylmethanimine Oxide] |
| 104 | CCS(=O)(=O)Nc1cccc(-c2nn(-c3ccc(C(F)(F)F)cc3)c(=O)c3ccccc23)c1 [Example 3, N-(3-(4-Oxo-3-(4-(trifluoromethyl)phenyl)-3,4-dihydrophthalazin-1-yl)phenyl)ethanesulfonamide] |
| 105 | COc1ccc(-c2nn(-c3ccc(F)cc3)c(=O)c3ccccc23)cc1/C=[N+](\[O-])Cc1ccccc1 [Example 50, (Z)—N-Benzyl-1-(5-(3-(4-fluorophenyl)-4-oxo-3,4-dihydrophthalazin-1-yl)-2-methoxyphenyl)methanimine Oxide] |
| 170.00 | COC(=O)C1(C2CCCN(c3nn(-c4ccc(F)cc4F)c(=O)c4ccccc34)C2)CC1 (centres unmarked) [Example 211, Methyl 1-(1-(3-(2,4-difluorophenyl)-4-oxo-3,4-dihydrophthalazin-1-yl)piperidin-3-yl)cyclopropan-1-carboxylate] |
| 184.3 | Cl.NC1CCCCN(c2nn(-c3ccc(F)cc3)c(=O)c3ccccc23)C1 (centres unmarked) [Example 148, 4-(3-Aminoazepan-1-yl)-2-(4-fluorophenyl)phthalazin-1(2H)-one-hydrochloride] |
| 103 | CCS(=O)(=O)Nc1cccc(-c2nn(Cc3ccc(F)cc3)c(=O)c3ccccc23)c1 [Example 63, N-(3-(3-(4-Fluorobenzyl)-4-oxo-3,4-dihydrophthalazin-1-yl)phenyl)ethanesulfonamide] |
| 126 | CNS(=O)(=O)c1cccc(-c2nn(-c3ccccc3)c(=O)c3ccc(F)cc23)c1 [Example 111, 3-(7-Fluoro-4-oxo-3-phenyl-3,4-dihydrophthalazin-1-yl)-N-methylbenzenesulfonamide] |
| 147 | Nc1cccc(-c2nn(-c3ccc(F)cc3F)c(=O)c3ccccc23)c1 [Example 24, 4-(3-Aminophenyl)-2-(2,4-difluorophenyl)phthalazin-1(2H)-one] |
| 161 | CC(C)(C)/[N+]([O-])=C/c1ccccc1-c1nn(-c2ccc(F)cc2)c(=O)c2ccccc12 [Example 42, (Z)—N-tert-Butyl-1-(2-(3-(4-fluorophenyl)-4-oxo-3,4-dihydrophthalazin-1-yl)phenyl)methanimine Oxide] |
| 145.64 | N-(3-(4-Oxo-3-(tetrahydro-2H-pyran-4-yl)-3,4-dihydrophthalazin-1-yl)phenyl)ethanesulfonamide [Example 151] |
| 253 | CCS(=O)(=O)c1cccc(-c2nn(-c3ccc(F)cc3F)c(=O)c3ccc(F)cc23)c1 [Example 123, 2-(2,4-Difluorophenyl)-4-(3-(ethylsulfonyl)phenyl)-6-fluorophthalazin-1(2H)-one] |
| 154 | CN(C)S(=O)(=O)Nc1cccc(-c2nn(-c3ccccc3)c(=O)c3ccccc23)c1 [Example 9] |
| 157 | CNS(=O)(=O)c1cccc(-c2nn(-c3ccc(F)cc3F)c(=O)c3ccc(F)cc23)c1 [Example 121, 3-(3-(2,4-Difluorophenyl)-7-fluoro-4-oxo-3,4-dihydrophthalazin-1-yl)-N-methylbenzenesulfonamide] |
| 189 | CN(C)S(=O)(=O)Nc1cccc(-c2nn(-c3ccc(F)cc3)c(=O)c3ccccc23)c1 [Example 12, N-(3-(3-(4-Fluorophenyl)-4-oxo-3,4-dihydrophthalazin-1-yl)phenyl)dimethylsulfamoylamide] |
| 166 | CS(=O)(=O)c1cccc(-c2nn(-c3ccc(F)cc3F)c(=O)c3ccc(F)cc23)c1 [Example 119, 2-(2,4-Difluorophenyl)-6-fluoro-4-(3-(methylsulfonyl)phenyl)phthalazin-1(2H)-one] |

Same assay, conditions: compound at 10 μM; fluorescence relative to the group without compound treatment (positive control group); 10 µM

| Sirt6 Activity (% activity, 10 μM) [% activity] | Compound |
| --- | --- |
| 126 | CC(C)/[N+]([O-])=C/c1cccc(-c2nn(-c3ccc(F)cc3)c(=O)c3ccccc23)c1 [Example 37, (Z)-1-(3-(3-(4-Fluorophenyl)-4-oxo-3,4-dihydrophthalazin-1-yl)phenyl)-N-isopropyl methanimine Oxide] |
| 168.10 | O=C(O)C1(C2CCCN(c3nn(-c4ccc(F)cc4F)c(=O)c4ccccc34)C2)CC1 (centres unmarked) [Example 213-1, 1-(1-(3-(2,4-Difluorophenyl)-4-oxo-3,4-dihydrophthalazin-1-yl)piperidin-3-yl)cyclopropan-1-carboxylic Acid] |
